In one series the test system is BVDV (strain NADL). Put plainly: Cell culture assay for inhibition of BVDV replication (cytopathic effect, crystal violet). Format: cell-based, bovine viral diarrhea virus. From the text:
The replication of many viruses may be quantitatively assessed in the laboratory in various cell or tissue culture systems. Such in vitro culture methodologies are available and useable by those trained in the art for the propagation and quantitative measurement of the replication of several pestiviruses and flaviviruses. The following procedure was used for the in vitro quantitative measure of BVDV replication.
Using the procedure described in this example, compounds of the invention were evaluated for their ability to inhibit the replication of the virus in cell culture. By adding compounds at various concentrations to the culture medium, a dose response effect of the compound on virus replication can be determined. A useful quantitative measure of the inhibition of BVDV replication in this assay is the concentration of the compound at which virus replication in cell culture is inhibited by 50% in comparison to that observed in the absence of the compound (50% Inhibitory Concentration, IC50).
Anti-pestivirus compounds of the invention were screened for antiviral activity against BVDV on Madin Darby bovine kidney (MDBK) cells in a cell culture assay. Standard 96-well culture plates were seeded with 1 to 2×10^4 MDBK cells in 200 uL of Dulbeccos-modified Eagle's medium (DMEM) supplemented with 5% horse serum so as to obtain a monolayer of cells at 60% confluence. Six hours later, the medium was removed and the cell monolayers in each well were infected with 150 uL solution of BVDV (strain NADL) (M. S. Collett et al., Virology 165:191-199 (1988)) in DMEM supplemented with 2% horse serum previously titrated to yield 85-100% destruction (cytopathic effect) of the cell monolayer 36-40 hours after infection.
To determine the IC50 values of compounds tested in this experiment, ten serial 2-fold dilutions of test compounds were prepared in DMSO solvent at a compound concentration 200 times that desired for the highest final test concentration. The test compound-DMSO solutions were diluted 50-fold into DMEM containing 2% horse serum. Fifty uL of this dilution was added to the 150 uL volume present in the wells of the virus-infected plate, yielding a final DMSO concentration in each well of 0.5%. Virus control (VC; no test compound) and cell culture control (CC; no virus and no test compound) wells were included on each 96-well plate. Assay points were conducted in replicate, usually in quadruplicate. Plates were then incubated at 37° C. in a humidified atmosphere containing 2.5% carbon dioxide for 36-40 hours. At the end of the incubation period, 100 uL of a 5% solution of glutaraldehyde in water was added to each well and the wells were incubated at room temperature for 1 hour. The fixative was removed, and the cells were stained with a 0.1% solution of crystal violet in water for 15-30 minutes. After rinsing and drying the plates, the optical density of the wells was measured at 570 nm (OD570).
To determine IC50 values for the test compounds, the mean value of the OD570 readings of the virus control wells (VC) on a plate was subtracted from the OD570 readings of all wells on that plate. The IC50 values were then calculated according to the following formula: [formula]
where Y represents the mean OD570 reading of the cell control wells (CC) divided by 2; B represents the mean OD570 reading of wells of the compound dilution nearest to and below Y; A represents the mean OD570 reading of wells of the compound dilution nearest to and above Y; L represents the compound concentration at B; and H represents the compound concentration at A.
For orientation: Protection from cytopathic effect is a common read-out in antiviral testing.

Series [1] relates to Respiratory syncytial virus. Put plainly: microbe, parasite or virus in culture. Type of series: cell-based. To be noted: read-out: IC50 Respiratory syncytial virus.
The test system of another series is Influenza A virus. Put plainly: microbe, parasite or virus in culture. Type of series: cell-based. The conditions noted are these: read-out: IC50 Influenza A virus.
The next series relates to Coxsackie B3 virus. Put plainly: microbe, parasite or virus in culture. Format: cell-based.
The subject of series [2] is Herpes simplex virus type 2. Put plainly: microbe, parasite or virus in culture. Format: cell-based.
The subject of another series is normal cells. To be noted: highest concentration giving optical density ≧75% of control, MTT, 68 hours.
For series [3] the following is noted: mouse, in vivo, po.
Series [4] can be described thus: Animal safety study: maximum tolerated dose after single oral dose. The conditions noted are these: female, Swiss Webster, mouse, in vivo, po.
Procedure: (§1) Doses above this level are overtly toxic or fatal to the animal.
(§2) To assess the safety of compounds of the invention, the methyl cellulose formulations of compounds of the invention were administered to laboratory mice. A single dose of each compound in a 0.5 mL volume was administered by oral gavage to groups of test animals, each consisting of five female Swiss Webster mice 8 to 9 weeks of age and weighing 25 to 30 g. The MTD was determined by administering increasing doses of compound and assessing animal survival over a 7 day period.
For series [5], the system named is female Swiss Webster mice. Described as above. The conditions noted are these: mice; for MTD: single oral dose, survival over 7 days.
Procedure: as §1, §2
A further series deals with BVDV-infected MDBK cells. Format: cell-based, bovine viral diarrhea virus. To be noted: read-out: IC50 evaluated with the spiked mouse reference serum.
The test system of series [6] is female Swiss Webster mice. The conditions noted are these: mouse, in vivo, po.
Procedure: as §1, §2
The mark [7] stands for this setting: Bovine viral diarrhea virus isolates and strains, BVDV strain NADL on MDBK cells, 36-40 hours, read-out: IC50.
Setting [8] is: Bovine viral diarrhea virus isolates and strains, BVDV, read-out: IC50 determined in cell culture.
The mark [9] stands for this setting: Bovine viral diarrhea virus isolates and strains, Table 3 specificity panel, BVDV, read-out: IC50 BVDV.
Setting [10] is: Bovine viral diarrhea virus isolates and strains, antiviral IC50 against BVDV, Table 4, read-out: IC50.
[11] abbreviates: human respiratory syncytial virus.
The mark [12] stands for this setting: Enterovirus B, B3, read-out: IC50 Coxsackie B3 virus.
The mark [13] stands for this setting: Human alphaherpesvirus 2, read-out: IC50 Herpes simplex virus type 2.
Where [14] appears, read: single oral gavage dose 21 mg/kg.
Where [15] appears, read: single oral gavage dose 71 mg/kg.
Setting [16] is: single oral gavage dose 710 mg/kg.
Where [17] appears, read: single oral gavage dose 214 mg/kg.

The text below walks through data of patent US20030176431A1 (priority 1997, published 2003).

Read-outs that look alike come from different tables or passages of the source.

Procedure for normal cells: This assay measures cell viability, and therefore cytotoxicity, by quantitatively detecting the in situ reduction of 3-(4,5-dimethylthiazol-2-yl)-2,5-diphenyltetrazolium bromide (MTT) by viable cells. Cells are seeded in 96-well plates in DMEM containing 2% horse serum at a density of 4×10^3 cells per well. After incubation for 4 hours at 37° C. and 5% CO2, 2-fold serial dilutions of compound in 1% DMSO (or solvent alone) are added to quadruplicate wells and the plates are incubated for an additional 68 hours at 37° C. and 5% CO2, which is equivalent to 3 to 4 cell doublings. The culture medium is removed, and the cells are treated with 1 mg/ml of MTT in phosphate-buffered saline, pH 7.2 for 4 hours at 37° C. and 5% CO2. After removal of the unreduced MTT, the reduced blue formazan crystals produced by the viable cells are solubilized by the addition of 0.04N HCl in isopropanol. The absorbance at 570 nm (A570) of each well is read using a suitable microplate reader. Cell viability is expressed as the percentage of optical density for compound-treated cells relative to the optical density of solvent alone-treated control wells. The highest compound concentration resulting in an optical density of ≧75% of the control is represented as the cellular cytotoxicity value (CC75).

For `Brc1ccc2[nH]c3nc(SCCN4CCCCCC4)nnc3c2c1` [Example 22], the IC50 (commonly the midpoint of a concentration-inhibition curve) in the series on BVDV (strain NADL) (setting [7]) worked out at 42 nM.
Regarding `CC(C)N(CCSc1nnc2c(n1)[nH]c1ccccc12)C(C)C` [Example 3], in the series on BVDV (strain NADL) (setting [7]), the IC50 was 3100 nM.
Turning to `c1ccc2c(c1)[nH]c1nc(SCCN3CCCCCC3)nnc12` [Example 9], the IC50 in the series on BVDV (strain NADL) (setting [7]) was 30 nM; in the series with BVDV (strain NADL) (setting [8]) it was 30 nM; in the series with BVDV (strain NADL) (setting [9]), 30 nM; in the series with BVDV (strain NADL) (setting [10]), 30 nM; in series [1] (setting [11]), above 50 µM; with Influenza A virus (Influenza A virus), above 50 µM. The half-maximal inhibitory concentration (IC50) (in the series on Coxsackie B3 virus (setting [12]); in series [2] (setting [13])) was above 50 µM in each case. Further, the CC75 in the series on normal cells came to 25 µM. Also, the “Concentration Of Drug Measured In Serum Post Drug Administration 30 Min.” value in series [3] (Swiss Webster, 21 mg/kg) came out at 0.7 µM; in series [3] (Swiss Webster, 214 mg/kg) it was 19.6 µM. Further, the “Concentration Of Drug Measured In Serum Post Drug Administration 90 Min.” value in [3] (Swiss Webster, 21 mg/kg) is below 0.2 µM; in series [3] (Swiss Webster, 214 mg/kg) it was 8.5 µM. Moreover, the MTD at 7 day in [4] stood at 214 mg/kg. For the same compound, the “#Survivors (alive at Day 7)” value is 5/5 in series [5] (setting [14]), 5/5 in series [5] (setting [15]) and 0/5 in series [5] (setting [16]).
Consider `CCCN(CCC)CCSc1nnc2c(n1)[nH]c1ccccc12` [Example 19], for which the concentration for half-maximal inhibition (IC50) in the series on BVDV (strain NADL) (setting [7]) turned out to be 2 nM.
On to `Clc1cc(CSc2nnc3c(n2)[nH]c2ccccc23)cc(Cl)n1` [Example 17], for which the IC50 in the series on BVDV (strain NADL) (setting [7]) was determined as 1400 nM.
Take `CCC1CCN(CCSc2nnc3c(n2)[nH]c2ccccc23)CC1` [Example 15]: the IC50 with BVDV (strain NADL) (setting [7]) is above 3000 nM.
For the compound `CCCN(CCC)CCSc1nnc2c(n1)[nH]c1ccccc12` [Example 1, 3-[((2-dipropylamino)ethyl)thio]-5H-1,2,4-triazino[5,6-b]indole], the IC50 is 6 nM in the series on BVDV (strain NADL) (read-out: IC50); 6 nM in the series on BVDV (strain NADL) (read-out: IC50 BVDV); 6 nM in the series on BVDV (strain NADL) (read-out: IC50 determined in cell culture); above 50 µM in series [1]; above 50 µM in the series on Influenza A virus; above 50 µM with Coxsackie B3 virus (read-out: IC50 Coxsackie B3 virus). The figures for the concentration for half-maximal inhibition (IC50) (in series [2] (read-out: IC50 Herpes simplex virus type 2); in the series with BVDV-infected MDBK cells) were above 50 µM and 3.5 nM, respectively. In addition, the CC75 with normal cells came to 2 µM. The MTD entry in series [6] is recorded as “greater than or equal to the highest dose tested”; in series [5], “≧710 mg/kg”. For the same compound, the entries for the “Concentration Of Drug Measured In Serum Post Drug Administration 30 Min.” value in series [3] (21 mg/kg) and in [3] (214 mg/kg) were 0.1 µM and 1.1 µM, respectively. In addition, the “Concentration Of Drug Measured In Serum Post Drug Administration 90 Min.” value in series [3] (21 mg/kg) stood at 0.07 µM; in series [3] (214 mg/kg) it was 0.6 µM. The “#Survivors (alive at Day 7)” value in series [5] (setting [14]), in [5] (setting [15]), in series [5] (setting [17]) and in [5] (setting [16]) was 5/5 in each case.
On to `CCN(CC)CC(C)Sc1nnc2c(n1)[nH]c1ccccc12` (stereo not shown) [Example 2], for which the IC50 with BVDV (strain NADL) (setting [7]) amounted to 300 nM.
Still for that read-out and setting: for `c1ccc2c(c1)[nH]c1nc(SCc3ccncc3)nnc12` [Example 10] the value was 4000 nM; for `c1ccc2c(c1)[nH]c1nc(SCCCN3CCCCC3)nnc12` [Example 8], 4400 nM; for `c1ccc2c(c1)[nH]c1nc(SCCCCOC3CCCCO3)nnc12` (stereo not shown) [Example 18], above 3000 nM.
On the same count and under the same terms, the value for `CCCN(CCC)CCSc1nnc2c(n1)[nH]c1ccc(N)cc12` [Example 26] was 10 nM; that for `Fc1ccc2[nH]c3nc(SCCN4CCCCCC4)nnc3c2c1` [Example 23] was 14 nM; that for `N#CC1CCN(CCSc2nnc3c(n2)[nH]c2ccccc23)CC1` [Example 14] was 1800 nM.
For `Cc1ccc2[nH]c3nc(SCCN4CCCCC4)nnc3c2c1` [Example 24], the IC50 in the series on BVDV (strain NADL) (setting [7]) is 13 nM.
With `c1ccc2c(c1)[nH]c1nc(SCCN3CCOCC3)nnc12` [Example 11], the concentration for half-maximal inhibition (IC50) in the series on BVDV (strain NADL) (setting [7]) is 1200 nM.
Same read-out and setting: for `CCCCN(CCCC)CCSc1nnc2c(n1)[nH]c1ccccc12` [Example 12] the value was 10 nM.
For the compound `COc1ccc2[nH]c3nc(SCCN4CCOCC4)nnc3c2c1` [Example 25], in the series on BVDV (strain NADL) (setting [7]), the concentration for half-maximal inhibition (IC50) worked out at 2000 nM.
Same read-out and setting: for `c1ccc2c(c1)[nH]c1nc(SCCN3CCCC3)nnc12` [Example 6] the value was 500 nM.
As for `c1ccc2c(c1)[nH]c1nc(SCCN3CCCCC3)nnc12` [Example 7], the half-inhibitory concentration (IC50) in the series on BVDV (strain NADL) (setting [7]) is 60 nM; in the series with BVDV (strain NADL) (setting [8]) it was 60 nM; in the series on BVDV (strain NADL) (setting [9]), 60 nM; in the series with BVDV (strain NADL) (setting [10]), 60 nM; in [1] (setting [11]), above 50 µM; in the series on Influenza A virus (Influenza A virus) it was above 50 µM. Moreover, the half-inhibitory concentration (IC50) (in the series on Coxsackie B3 virus (setting [12]); in [2] (setting [13])) was above 50 µM each time. In the series with normal cells, this compound returned a CC75 of 12.5 µM. Further, the “Concentration Of Drug Measured In Serum Post Drug Administration 30 Min.” value in series [3] (Swiss Webster, 21 mg/kg) was below 1.5 µM; in series [3] (Swiss Webster, 214 mg/kg), 46.0 µM. Also, the “Concentration Of Drug Measured In Serum Post Drug Administration 90 Min.” value in series [3] (Swiss Webster, 21 mg/kg) is below 1.5 µM; in [3] (Swiss Webster, 214 mg/kg), 36.2 µM. Also, the MTD at 7 day in series [4] was at least 710 mg/kg. Besides, in series [5], the MTD entry is “greater than or equal to the highest dose tested”. Besides, the “#Survivors (alive at Day 7)” value in series [5] (setting [14]), in [5] (setting [15]), in series [5] (setting [17]) and in series [5] (setting [16]) was 5/5 in each case.
With `Fc1ccc2[nH]c3nc(SCCN4CCCCC4)nnc3c2c1` [Example 27], the IC50 in the series on BVDV (strain NADL) (setting [7]) was determined as 21 nM.
For the compound `Brc1ccc2[nH]c3nc(SCCN4CCCCC4)nnc3c2c1` [Example 21], the half-maximal inhibitory concentration (IC50) in the series on BVDV (strain NADL) (setting [7]) worked out at 36 nM.
With `COc1cc2oc(=O)cc(CSc3nnc4c(n3)[nH]c3ccccc34)c2cc1OC` [Example 13], in the series on BVDV (strain NADL) (setting [7]), the IC50 turned out to be 1700 nM.
Still for that read-out and setting: the value for `CC(CN(C)C)Sc1nnc2c(n1)[nH]c1ccccc12` (stereo not shown) [Example 4] was 3700 nM; that for `c1ccc2c(c1)OCC(CSc1nnc3c(n1)[nH]c1ccccc13)O2` (stereo not shown) [Example 16] was 2500 nM; that for `CN(C)CCSc1nnc2c(n1)[nH]c1ccccc12` [Example 5] was 5500 nM.
Consider `Cc1ccc2[nH]c3nc(SCCN4CCCCCC4)nnc3c2c1` [Example 20], for which the concentration for half-maximal inhibition (IC50) in the series with BVDV (strain NADL) (setting [7]) was determined as 7 nM.
